Consider 25 molecules from article PMC8287944, “5-Fluorouracil blocks quorum-sensing of biofilm-embedded methicillin-resistant Staphylococcus aureus in mice” (Nucleic Acids Research, 2021).

Read-outs that look alike come from different tables or passages of the source. Bridge positions count the residues as written; N and C are the ends. Square brackets hold non-standard residues; d marks the D form. Peptide text beside a SMILES is read from it. I, II: the chains in the order shown. * marks the point of attachment. Quinoxaline2carbonyl = O=C(c1cnc2ccccc2n1)*; NMeV = CN[CH](C(=O)O)C(C)C; NMeC = CN[CH](CS)C(=O)O

For series [1], the system named is AI-2 production by HEK-293AI2 cells expressing MTAN and LuxS. Put plainly: HEK-293AI2 / V. harveyi (MM32) AI-2 detection platform (AI-2 production by engineered human cells). The class given is cell-based, human cells; MTAN and LuxS derived from E. coli. The note with it: for IC50: HEK-293AI2 cells exposed 24 h, AI-2 in supernatant read by V. harveyi MM32 bioluminescence. As for the experimental part:
LuxS (MF688636) and MTAN (MF688635) transgenes derived from E. coli were codon-optimized for stable expression in mammalian cells. For the generation of double stable HEK-293-derived cell line HEK-293AI2 transgenic for simultaneous constitutive PhEFIα-driven MTAN and PhCMV-driven LuxS-eYFP expression, 250,000 cells were first transfected with 2000 ng of pFS168 (PhEFIα-MTAN-pA) and selected in culture medium containing 20 μg/ml blasticidin (cat. no. ant-bl-1; InvivoGen, San Diego, CA, USA) for two weeks. […] After 17 days of selection in medium containing 200 μg/ml (w/v) zeocin (cat. no. ant-zn-1; Invivogen, San Diego, CA, USA) and 20 μg/ml blasticidin, resistant monoclonal cells (HEK-293sFS26cx) were obtained by limiting dilution cloning and screened for AI-2 activity in their supernatants. […] The cell line was regularly tested for the absence of mycoplasma.
20 μl of HEK-293AI2 cells (10^4 cells per well) were resuspended in 20 μl Dulbecco's modified Eagle's medium (DMEM; Thermo Fisher, Basel, Switzerland, low glucose, without phenol red, cat. no. 11880–028) supplemented with 4 mM L-glutamine (Thermo Fisher, Basel, Switzerland, cat. no. 25030-024), 30 μg/ml kanamycin and 1% FCS and seeded into a poly-L-lysine-coated Black Greiner clear-bottom 384-well plate (cat. no. 3845; Corning, New York, USA) using a Multidrop Combi Reagent Dispenser (cat. no. 5840300; Thermo Fisher, Basel, Switzerland). Cells were incubated for 20 h and then 20 nL of individual compounds (stock solution in 5 mM in DMSO) or controls (stock solutions of novobiocin, 10 mM in DMSO; staurosporin, 20 mM in DMSO) were transferred with Echo 550 liquid handler (Labcyte, San Jose, CA, USA) into the plate.
Compound-treated cells were cultivated for 24 hours and the cell culture supernatants (10 μl) were transferred to dry black polystyrene 384-well plates (Corning, New York, USA, cat. no. 3571). The AI-2 activity was quantified by adding 40 μl per 384-well of V. harveyi MM32 AI-2 reporter strain, diluted 1:500 in AB-Medium from a stationary overnight culture grown in Luria Marine (LM)-medium containing 20 g of NaCl, 10 g of Bacto Tryptone (Difco Laboratories), and 5 g of yeast extract (BBL) ([25]). Plates were sealed with BREATHseal™ (cat. no. 7.676 050; Greiner Bio-One, Frickenhausen, Germany) and incubated for 4 h at 30°C and 200 rpm on a Multitron Pro shaker (Infors, Bottmingen, Switzerland). Bioluminescence was measured on an Envision 2104 Multilabel plate reader (Perkin Elmer, Waltham, USA) with 1 s integration time. […] The initial hit inclusion criteria were a toxicity score of less than 50% and an AI-2 activity reduction below the average of all compound activity three times the standard deviation (-49.39% of activity).
(§1) Figure 2. Cell-based primary screen for AI-2 biosynthesis inhibitors. (A) Detailed assay protocol of the primary screen using engineered mammalian cells to identify inhibitors of quorum sensing. […] Aliquots of 10 μl of culture supernatants were transferred to black-bottomed assay plates and mixed with 40 μl of V. harveyi MM32 (AI-2 biosensor). AI-2-induced bioluminescence was measured 4 h later and normalized against the controls. In a secondary screen, the dose-response relationships of hit compounds are analyzed. To simultaneously assess effects on cell viability, compound-treated cells were supplemented with PrestoBlue and incubated for 1 h prior to resorufin fluorescence quantification. (B) Z’-evaluation of the AI-2 inhibitor assay.

The test system of another series is HEK-293AI2 cells. The class given is cell-based, human. As for the experimental part: To monitor viable cells with active metabolism, we employed a fast resazurin assay. […] To calculate the relative cell viability, the fluorescence of DMSO-treated cells was set to 100%.
as §1, with “assay. […] Bioactivity and viability are calculated as percentages, based on the positive control value (taken as 100%) and negative control value (taken as 0%). […] Data points in (C) represent means of biological duplicates.” for “assay.”

The subject of a further series is V. harveyi (BB170). The series is described as follows: V. harveyi BB170 growth (OD600 after 24 h). The conditions noted are these: V. harveyi BB170, OD600 after 24 h. The arrangement: TC50 (decrease of V. harveyi growth): unit not given beside the values. The class given is cell-based, Vibrio harveyi. As for the experimental part: The test strain V. harveyi BB170 was grown overnight in Luria Marine (LM)-medium ([25]). The culture was 1:500 diluted in AB-medium (0.3 M NaCl, 10 mM potassium phosphate, 1 mM L-arginine, […], 1% glycerol) the next day, and then challenged with various chemical compounds. After 5 h of shaking at 200 rpm at 30°C, the bioluminescence of BB170 was quantified on a GENios Pro plate reader (Tecan, Männedorf, Switzerland).
Figure 3. Bioactivity of hit candidates against Vibrio harveyi. Effect on bacterial growth. V. harveyi (BB170) was grown in the presence of individual compounds (A–H) for 5 h and the bioluminescence (green circles) was quantified. After a total of 24 h, bacterial growth (+) was evaluated by measuring the optical density (OD600). The gray translucent background in (C) represents the narrow range within which the compound reduces bioluminescence without affecting growth.

Another series addresses MTAN. The conditions noted are these: cited from earlier work; for Ki: read-out: Ki (reported, in vitro).

Regarding `CCCCC[C@H](CC(=O)NO)C(=O)N[C@H](C(=O)N1CCC[C@H]1CO)C(C)C` [Actinonin], in series [1] (Homo sapiens, 24 h), the IC50 (usually the midpoint of a concentration-inhibition curve) was determined as 1000 nM. The “Viability of Ctrl (%)” value in the series with HEK-293AI2 cells (human, 5 µM) is listed as “–11.93%”. The molecule `CNC1=NC(=O)[C@H]([C@@H](C)c2c[nH]c3ccccc23)O1` [CHEMBL283366] registered an IC50 in series [1] of 180 nM. `CO/N=C(\C(=O)N[C@@H]1C(=O)N2C(C(=O)O)=C(CSc3nc(=O)c(=O)[nH]n3C)CS[C@H]12)c1csc(N)n1` [Ceftriaxone]: half-maximal inhibition in series [1] (Homo sapiens, 24 h) (IC50) required 3490 nM. Moreover, the “Viability of Ctrl (%)” value in the series with HEK-293AI2 cells (human, 5 µM) was “–4.78%”.

`Nc1nc(Cl)nc2c1ncn2[C@@H]1O[C@H](CO)[C@@H](O)[C@@H]1F` [Clofarabine] gave an IC50 in series [1] (Homo sapiens, 24 h) of 160 nM. In addition, the “Viability of Ctrl (%)” value in the series with HEK-293AI2 cells (human, 5 µM) worked out at 15.42%. In addition, in the series on V. harveyi (BB170), the “TC50 (decrease of V. harveyi growth)” value is on record as 4.4 × 10^−7.

Molecule `C[C@H]1O[C@@H](n2cc(F)c(=O)[nH]c2=O)[C@H](O)[C@@H]1O` [Doxifluridine] yielded a half-inhibitory concentration (IC50) in series [1] (Homo sapiens, 24 h) of 240 nM. For the same molecule, in the series with HEK-293AI2 cells (human, 5 µM), the “Viability of Ctrl (%)” value was “–0.0725%”. The molecule `CC[C@H]1OC(=O)[C@H](C)[C@@H](O[C@H]2C[C@@](C)(OC)[C@@H](O)[C@H](C)O2)[C@H](C)[C@@H](O[C@@H]2O[C@H](C)C[C@H](N(C)C)[C@H]2O)[C@](C)(O)C[C@@H](C)C(=O)[C@H](C)[C@@H](O)[C@]1(C)O.O=C(O)[C@H](O)[C@H](O)[C@@H](O)[C@H](O)[C@H](O)CO` [Erythrohycin Gluceptate] yielded a concentration for half-maximal inhibition (IC50) in series [1] of 1310 nM.

For `CC[C@H]1OC(=O)[C@H](C)[C@@H](O[C@H]2C[C@@](C)(OC)[C@@H](O)[C@H](C)O2)[C@H](C)[C@@H](O[C@@H]2O[C@H](C)C[C@H](N(C)C)[C@H]2O)[C@](C)(O)C[C@@H](C)C(=O)[C@H](C)[C@@H](O)[C@H]1C` [Erythromycin B], the IC50 in series [1] came out at 1420 nM. In addition, the “Viability of Ctrl (%)” value in the series on HEK-293AI2 cells amounted to 4.99%. In series [1] (Homo sapiens, 24 h), `O=c1[nH]c(=O)n([C@H]2C[C@H](O)[C@@H](CO)O2)cc1F` [Floxuridine] had a half-maximal inhibitory concentration (IC50) of 770 nM. In addition, the “Viability of Ctrl (%)” value with HEK-293AI2 cells (human, 5 µM) is reported as “–22.28%”. In the case of `Nc1ncnc2c([C@@H]3O[C@H](CO)[C@@H](O)[C@H]3O)[nH]nc12` [Formycin], the half-inhibitory concentration (IC50) in series [1] (Homo sapiens, 24 h) is 2110 nM; with MTAN (competitive MTAN inhibition, read-out: Reported IC50 (in vitro)), 57000 nM. The Ki – broadly, the equilibrium dissociation constant of an inhibitor or competing ligand from its target – at MTAN (competitive MTAN inhibition) was 10000 nM. In turn, `C[C@@H]1C/C=C2\SC[C@@H](NC(=O)c3coc(n3)C[C@H](O)C[C@H](O)/C=C/C=C/CNC2=O)C(=O)O1` [Griseoviridin] registered an IC50 in series [1] of 4550 nM.

The molecule `CC(=O)NC[C@H]1CN(c2ccc(N3CCOCC3)c(F)c2)C(=O)O1` [Linezolid] gave a 50% inhibitory concentration (IC50) in series [1] (Homo sapiens, 24 h) of 4160 nM. For the same molecule, in the series on HEK-293AI2 cells (human, 5 µM), the “Viability of Ctrl (%)” value is given as 0.38%. Consider `CSC[C@H]1CN(Cc2c[nH]c3c(N)ncnc23)C[C@@H]1O` [MT-DADMe-ImmA], for which the IC50 in series [1] worked out at 170 nM. For the same molecule, the inhibition constant Ki at MTAN (MTAN inhibition) is 0.002 nM. In series [1], `C/C=C\C=C\[C@@H]1O[C@](O)([C@H](CC)C(=O)NC/C=C/C=C(\C)[C@@H](OC)[C@H](C)[C@@H]2O[C@H](/C=C/C=C/C=C(\C)C(=O)c3c(O)cc[nH]c3=O)[C@H](O)[C@@H]2O)[C@H](O)[C@H](O)C1(C)C` [Mocimycin] registered an IC50 of 1370 nM. In series [1] (Homo sapiens, 24 h), `COc1cc(C)c(Cc2cnc(N)nc2N)cc1OC` [Ormetoprim] displayed an IC50 of 3660 nM. The same measure, in the same setting: in the case of `NC(=O)c1ncn([C@@H]2O[C@H](CO)[C@@H](O)[C@H]2O)n1` [Ribavirin] it was 190 nM. Turning to `CO[C@H]1/C=C/O[C@@]2(C)Oc3c(C)c(O)c4c(c3C2=O)C2=NC3(CCN(CC(C)C)CC3)NC2=C(NC(=O)/C(C)=C\C=C\[C@H](C)[C@H](O)[C@@H](C)[C@@H](O)[C@@H](C)[C@H](OC(C)=O)[C@@H]1C)C4=O` [Rifabutin], the IC50 in series [1] (Homo sapiens, 24 h) was determined as 2190 nM. The “Viability of Ctrl (%)” value with HEK-293AI2 cells (human, 5 µM) is listed as “–5.07%”. In the same order, the values of `CO[C@H]1/C=C/O[C@@]2(C)Oc3c(C)c(O)c4c(O)c(c(/C=N/N5CCN(C6CCCC6)CC5)c(O)c4c3C2=O)NC(=O)/C(C)=C\C=C\[C@H](C)[C@H](O)[C@@H](C)[C@@H](O)[C@@H](C)[C@H](OC(C)=O)[C@@H]1C` [Rifapentine] are 2530 nM and “–0.98%”. The molecule `O=CN(O)C[C@@H](CC1CCCC1)C(=O)N1C[C@H](F)C[C@H]1C(=O)Nc1cnccn1` [SCHEMBL12230405] came in with an IC50 in series [1] of 150 nM. On the same count and under the same terms, the value for `O=CN(O)C[C@@H](CC1CCC1)C(=O)N1C[C@H](F)C[C@H]1C(=O)Nc1cccnn1` [SCHEMBL12230407] was 630 nM. On the same count and under the same terms, in the case of `O=CN(O)C[C@@H](CC1CCCC1)C(=O)N1C[C@H](F)C[C@H]1C(=O)Nc1cccnn1` [SCHEMBL12230409] it was 640 nM. `CCCC[C@H](CN(O)C=O)C(=O)N1CCC[C@H]1C(=O)Nc1cc(CC)ccn1` [SCHEMBL14510040]: the midpoint of inhibition in series [1], the IC50, lay at 1090 nM. On the same count and under the same terms, in the case of `CC1NC(=O)C(NC(=O)c2cnc3ccccc3n2)COC(=O)C(C(C)C)N(C)C(=O)C2CSSCC(C(=O)N(C)C(C(C)C)C(=O)OCC(NC(=O)c3cnc4ccccc4n3)C(=O)NC(C)C(=O)N2C)N(C)C1=O` (centres unmarked) [Triostin A] (I: Quinoxaline2carbonyl-SA[NMeC][NMeV] / II: Quinoxaline2carbonyl-SA[NMeC][NMeV]; ester I:1-II:C, I:C-II:1; disulfide I:3-II:3; configuration not given here) it was 2140 nM.

On to `CO[C@@H]1[C@@H](OC(N)=O)[C@@H](O)[C@H](Oc2ccc3c(O)c(NC(=O)c4ccc(O)c(CC=C(C)C)c4)c(=O)oc3c2C)OC1(C)C` [novobiocin], for which, in series [1] (assay validation, active control novobiocin 10 μM), the “Bioluminescence of V. harveyi (MM32)” value is recorded as “completely shut down the bioluminescence”. With Erythromycin, half-maximal inhibition in series [1] (IC50) was put at 1930 nM. For the molecule Levomycin, in series [1], the IC50 was 370 nM.
